The text below walks through data of patent US11464750B2, “Anticancer agent and use thereof” (priority 2017, dated 2022).

Each structure is given as a SMILES string.

Common to all, as to type: cell-based, human
One experiment relates to p53 protein. Put plainly: Western blotting, p53 protein, Panc-1 cells. Particulars: 3 μM, 12 hours until 48 hours after treatment. The procedure: Specifically, JeKo-1 cells were cultured for 0 (control), 12, 24, and 48 hours in the presence of 0.5 μM of 3EZ,20Ac-ingenol. In addition, Panc-1 cells were cultured for 0 (control), 12, 24, and 48 hours in the presence of 3 μM of 3EZ,20Ac-ingenol.
Subsequently, ATR protein, p53 protein, and phosphorylated p53 (hereinafter also referred to as “p-p53”) protein in the respective cells were respectively detected using an anti-ATR antibody (Cell Signaling Technology), an anti-p53 antibody (Santa Cruz), and an anti-p-p53 antibody (Cell Signaling Technology). Furthermore, as a loading control, actin protein was detected using an anti-actin antibody (Sigma).
Background: In western blotting, separated proteins are transferred to a membrane and probed.

The subject of a further experiment is cyclin D1. The experiment can be described thus: Western blotting, cyclin D1, Panc-1 cells. Particulars: 3 μM. How it is done:
(§1) Specifically, first, JeKo-1 cells were cultured for 0 (control), 12, 24, and 48 hours in the presence of 0.5 μM of 3EZ,20Ac-ingenol. In addition, Panc-1 cells were cultured for 0 (control), 12, 24, and 48 hours in the presence of 3 μM of 3EZ,20Ac-ingenol.
Subsequently, abundances of cyclin D1 in entire cell fractions, nuclear fractions, and cytoplasm fractions of the respective cells were analyzed by Western blotting.

For another experiment, the system named is BALL-1 cells. Put plainly: MTT assay, BALL-1 cells. Conditions: 0.01, 0.05, 0.1, 0.5, and 1 μM, 48 hours. The procedure:
BALL-1 cells of a cell line derived from […], TKG0210 cells of a human myeloid leukemia cell line, and TKG0377 cells of a human T cell acute leukemia cell line were seeded in 96-well plates at 2.5×10^4 cells/well/100 μL, and cultured for 48 hours in the presence of 3EZ,20Ac-ingenol at final concentrations of 0 (control), 0.5, 1, 5, and 10 μM. Subsequently, cell proliferation was examined by MTT assay using a Cell Proliferation Kit 1 (Roche Applied Science).
BALL-1 cells were exposed to 3EZ,20Ac-ingenol, 3EE,20Ac-ingenol, 20Ac-ingenol, and ingenol at concentrations of 0.01, 0.05, 0.1, 0.5, and 1 μM for 48 hours. Thereafter, cell proliferation was examined by MTT assay. Cells that were not exposed to the chemical were used as controls. The chemical formulas of 3EZ,20Ac-ingenol, 3EE,20Ac-ingenol, and 20Ac-ingenol are as described above. The chemical formula of ingenol is shown in the following Formula (7).
A general note: Tetrazolium dyes change colour on reduction, which living cells bring about.

Another experiment has as its system JeKo-1 cells. Put plainly: MTT assay, JeKo-1 cells. Particulars: 48 hours. The procedure: JeKo-1 cells of a cell line derived from a human mantle cell lymphoma were seeded in a 96-well plate at 1×10^4 cells/well/100 μL. In addition, Panc-1 cells of a cell line derived from a human pancreatic cancer were seeded in a 96-well plate at 3×10^3 cells/well/100 μL.
Subsequently, 3EZ,20Ac-ingenol at final concentrations of 0 (control), 0.1, 0.5, 1, 5, and 10 μM was added the wells of the respective cells, and culturing was performed for 48 hours. Subsequently, cell proliferation was examined by MTT assay using a Cell Proliferation Kit I (Roche Applied Science).
First, JeKo-1 cells were seeded in a 96-well plate at 1×10^4 cells/well/100 μL. Subsequently, irinotecan at a final concentration of 0 (control), 0.5, 1, 5, 10, 20, and 30 μM was added to the wells of the cells and culturing was performed for 48 hours. In addition, Panc-1 cells were seeded in a 96-well plate at 3×10^3 cells/well/100 μL. Subsequently, irinotecan at a final concentration of 0 (control), 0.5, 1, 5, 10, 20, 30, and 50 μM was added to the wells of the cells and culturing was performed for 48 hours. Subsequently, cell proliferation was examined by MTT assay using a Cell Proliferation Kit I (Roche Applied Science).

In the next experiment the test system is Akt protein. The experiment can be described thus: Western blotting, total amount of Akt, JeKo-1 cells. Particulars: 0.5 μM, entire cell fraction. The procedure: as §1
Subsequently, by Western blotting using an anti-Akt antibody (Cell Signaling Technology) and an anti-p-Akt (Ser^473) antibody (Cell Signaling Technology), abundances of total amounts of Akt protein and p-Akt in the entire cell fractions, nuclear fractions, and cytoplasm fractions of the respective cells were analyzed. Furthermore, as a loading control, actin protein was detected using an anti-actin antibody (Sigma).

The next experiment concerns PTEN. The experiment can be described thus: Western blotting, PTEN, BALL-1 cells. Particulars: 0.5 μM. The procedure:
The effect of 3EZ,20Ac-ingenol treatment on PTEN, p-PTEN, and p-Akt of BALL-1 cells was examined. First, BALL-1 cells were cultured for 3, 6, 12, 24, and 48 hours in the presence of 3EZ,20Ac-ingenol at a final concentration of 0.5 μM, and by Western blotting using an anti-PTEN antibody (Santa Cruz), an anti-p-PTEN (Ser^380/Thr^382/383) antibody (Santa Cruz), and an anti-p-Akt (Ser^473) antibody (Cell Signaling Technology), abundances of PTEN, p-PTEN, and p-Akt in the entire cell fraction were analyzed. In addition, cells cultured in the absence of 3EZ,20Ac-ingenol were used as controls.
Subsequently, siRNA against PTEN (“ON-TARGET Plus Human PTEN (5728) siRNA-SMARTpool,” GE Dharmacon) was introduced into BALL-1 cells at a final concentration of 50 nM and incubated for 48 hours. Subsequently, a cell medium was replaced with a new medium and cultured for 12, 24, and 48 hours in the presence or absence of 3EZ,20Ac-ingenol at a final concentration of 0.5 μM, and by Western blotting using an anti-PTEN antibody (Santa Cruz) and an anti-p-Akt (Ser^473) antibody (Cell Signaling Technology), abundances of PTEN protein and p-Akt were analyzed.

For another experiment, the system named is p-GSK-3β (Ser^9). The experiment can be described thus: Western blotting, p-GSK-3β (Ser9), JeKo-1 cells. Conditions: 0.5 μM, entire cell. How it is done: as §1
Subsequently, abundances of GSK-3β and p-GSK-3β in the respective cells were analyzed by Western blotting using an anti-GSK-3β antibody (Cell Signaling Technology) and an anti-p-GSK-3β (Ser^9) antibody (Cell Signaling Technology). Furthermore, as a loading control, actin protein was detected using an anti-actin antibody (Sigma).

The IC50 is the concentration that inhibits the measured activity by half.

Take `CCCCC/C=C\C=C\C(=O)O[C@H]1C(C)=C[C@]23C(=O)[C@@H](C=C(COC(C)=O)[C@@H](O)[C@]12O)[C@H]1[C@@H](C[C@H]3C)C1(C)C` [3EZ,20Ac-ingenol, 3-O-(2′E,4′Z-decadienoyl)-20-O-acetylingenol]: the “expression level of p53 protein” value with p53 protein was “an increase in expression level of p53 protein was recognized”. For the same compound, in the experiment with cyclin D1 (cytoplasm fraction, 12 to 48 hours), the “abundance of cyclin D1” value is on record as “an abundance of cyclin D1 decreased”. Also, the “expression level of cyclin D1” value in the experiment with cyclin D1 (entire cell fraction, 12 to 24 hours) is “temporarily increased”; in the experiment with cyclin D1 (entire cell fraction, after 24 hours), “then decreased thereafter”; in the experiment on cyclin D1 (nuclear fraction, 12 hours), “temporarily increased”; in the experiment on cyclin D1 (nuclear fraction, after 24 hours), “decreased after 24 hours”. Besides, the “inhibition of proliferation of the BALL-1 cells” value in the experiment with BALL-1 cells is “a significant level of inhibition of proliferation”. Besides, the “proliferation inhibition of JeKo-1 cells” value in the experiment with JeKo-1 cells (1 to 10 μM of 3EZ,20Ac-ingenol) is “grown cells were almost eliminated”. The IC50 in the experiment with JeKo-1 cells (MTT assay, read-out: IC50 with respect to the JeKo-1 cells) stood at 500 nM. For the same compound, the “abundance of a total amount of Akt” value in the experiment on Akt protein is on record as “almost no change was observed”. Moreover, in the experiment with PTEN (3 to 48 hours, entire cell fraction), the “abundance of PTEN” value is on record as “an increase in abundance of PTEN”. Moreover, the “expression level of PTEN” value in the experiment with PTEN (cells with siRNA against PTEN introduced, 12 hours, further increased 24 and 48 hours) is given as “an increase in expression level of PTEN was observed”. In the experiment on p-GSK-3β (Ser^9), the “p-GSK-3β (an inactive type)” value is “a decrease in p-GSK-3β (an inactive type) was observed”.
